Assay [1] concerns the target T1, BCLXL (Homo sapiens, UniProt Q07817, V10N/V9A). In words: Fluorescence polarisation assay (PUMA-based probe displacement). Further: 20 nM protein, 10 nM fluorescent probe. Format: binding. Background: Fluorescence polarisation rises when a labelled molecule tumbles more slowly, as on binding a larger partner.
Assay [2] deals with H146 cells. Nature of the assay: H146 cell viability, MTT assay. Format: cell-based. As to conditions: Homo sapiens, NCI-H146, 48 h, 48 h exposure. An outline of the steps: (§1)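 Cells grown in RPMI 1640 with 10% heat-inactivated FBS at 37° C, 5% CO2, exposed 48 h to nine 3.16-fold serial compound dilutions in triplicate. MTT added for 4 h, SDS/HCl solubilisation overnight, absorbance at 540 nm; IC50 by four-parameter fit.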
For orientation: Tetrazolium assays rely on reduction of a dye to a coloured formazan, in cell work by metabolically active cells.

Assay [3] deals with T1, BCLXL. In words: AlphaLISA assay (BIM peptide displacement). Format: binding. As to conditions: 20 pM protein, 1 nM peptide. An outline of the steps:
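Competitive displacement of fluorescein-labelled BIM peptide (1 nM) from biotinylated GST-BCL-XL(2-209) (20 pM) in 10 mM HEPES, 150 mM NaCl, 0.05% Tween 20, pH 7.4, 4% DMSO; 11-point dilutions. Overnight at 23° C with acceptor beads, then donor beads 2 h; Alpha signal at 615 nm.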

For assay [4], the target named is T2, Bcl-xL protein (Homo sapiens, UniProt Q07817, N197C).
T2 construct: (2-197)[N197C]; His-His (two His8 stretches joined by a Gly/Ala/Ser/Thr linker)
In words: Fluorescence quenching assay (PUMA peptide displacement). Format: binding. As to conditions: 1 nM protein, 400 nM peptide, 2 hours at 23° C.; KI determined from IC50. The method in brief:
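Displacement of a TQ5WS-quencher-labelled PUMA peptide (400 nM) from Cy5-labelled His-tagged Bcl-xL 2-197 N197C (1 nM) raises fluorescence. An 11-point compound dilution was incubated 2 h at 23 °C in HEPES 10 mM, NaCl 150 mM, 0.05% Tween 20, pH 7.4, 5% DMSO. Fluorescence was read at Ex 620/Em 680 nm, and KI was derived from IC50.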

The subject of assay [5] is MOLT-4 cells. In words: MOLT-4 cell viability, MTT assay. Format: cell-based. The note with it: Homo sapiens, MOLT-4, 48 h, 48 h exposure. An outline of the steps:
as §1

T1 sequence (Q07817 with tags, fused parts or gaps V9A/V10N): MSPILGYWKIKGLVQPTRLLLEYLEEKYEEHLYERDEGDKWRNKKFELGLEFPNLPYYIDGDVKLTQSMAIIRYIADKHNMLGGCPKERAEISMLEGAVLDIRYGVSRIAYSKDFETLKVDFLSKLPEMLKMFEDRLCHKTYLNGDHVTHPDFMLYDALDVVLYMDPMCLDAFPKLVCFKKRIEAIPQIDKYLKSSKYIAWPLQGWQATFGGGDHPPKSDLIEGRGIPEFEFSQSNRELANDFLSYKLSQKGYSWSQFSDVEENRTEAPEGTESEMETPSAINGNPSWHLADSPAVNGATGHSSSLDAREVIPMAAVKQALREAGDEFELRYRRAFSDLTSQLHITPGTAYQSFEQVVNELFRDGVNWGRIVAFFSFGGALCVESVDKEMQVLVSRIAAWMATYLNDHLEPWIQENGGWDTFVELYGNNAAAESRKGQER
T2 sequence (Q07817 2-197 N197C): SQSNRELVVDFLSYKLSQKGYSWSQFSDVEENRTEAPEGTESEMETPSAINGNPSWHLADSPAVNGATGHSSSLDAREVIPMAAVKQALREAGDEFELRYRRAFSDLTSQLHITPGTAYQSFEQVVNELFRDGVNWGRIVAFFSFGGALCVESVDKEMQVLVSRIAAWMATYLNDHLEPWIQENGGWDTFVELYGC

One may read the Ki as the dissociation constant of the complex between target and ligand, obtained from inhibition or displacement. In general, IC50 refers to the concentration that inhibits the measured activity by half. As for `Cc1cc(N(C)c2nc(C(=O)O)c(CCCOc3ccc(C#CCN(C)C)cc3F)s2)nnc1Nc1nc2ccccc2s1` [Example 50, 2-[[6-(1,3-Benzothiazol-2-ylamino)-5-methyl-pyridazin-3-yl]-methyl-amino]-5-[3-[4-[3-(dimethylamino)prop-1-ynyl]-2-fluoro-phenoxy]propyl]thiazole-4-carboxylic acid], the Ki is 1.2 nM in assay [1] and 0.0044 nM in assay [4]. Besides, the IC50 was 2.84 nM in assay [2], 0.0074 nM in assay [3] and 0.462 nM in assay [5].

For the compound `CN(C)CC#Cc1ccc(OCCCc2sc(N(C)c3cc(C4CC4)c(Nc4nc5ccccc5s4)nn3)nc2C(=O)O)c(F)c1` [Example 62, 2-({6-[(1,3-Benzothiazol-2-yl)amino]-5-cyclopropylpyridazin-3-yl}(methyl)amino)-5-(3-{4-[3-(dimethylamino)prop-1-yn-1-yl]-2-fluorophenoxy}propyl)-1,3-thiazole-4-carboxylic acid], the Ki in assay [1] is below 1 nM; in assay [4], 0.006 nM. In addition, the values for the IC50 in assay [2], in assay [3] and in assay [5] were 4.66 nM, 0.11 nM and 0.444 nM, respectively.

`CNCC#Cc1ccc(OCCCc2sc(N(CCC(O)COC)c3cc(C)c(Nc4nc5ccccc5s4)nn3)nc2C(=O)O)c(F)c1` (stereo not shown) [Example 109, 2-[[6-(1,3-Benzothiazol-2-ylamino)-5-methyl-pyridazin-3-yl]-(3-hydroxy-4-methoxy-butyl)amino]-5-[3-[2-fluoro-4-[3-(methylamino)prop-1-ynyl]phenoxy]propyl]thiazole-4-carboxylic acid]: the inhibitory constant (Ki) in assay [1] is below 1 nM; in assay [4], 0.0011 nM. In addition, the results for the IC50 in assay [2], in assay [3] and in assay [5] were 6.38 nM, 0.011 nM and 19.8 nM, respectively.

As to `Cc1cc(N(CCCC(O)CN(C)CCN(C)C)c2nc(C(=O)O)c(CCCOc3ccc(C#CCN(C)C)cc3F)s2)nnc1Nc1nc2ccccc2s1` (stereo not shown) [Example 124, 2-[[6-(1,3-Benzothiazol-2-ylamino)-5-methyl-pyridazin-3-yl]-[5-[2-(dimethylamino)ethyl-methyl-amino]-4-hydroxy-pentyl]amino]-5-[3-[4-[3-(dimethylamino)prop-1-ynyl]-2-fluoro-phenoxy]propyl]thiazole-4-carboxylic acid], the Ki was below 1 nM in assay [1] and 0.0017 nM in assay [4]. The IC50 in assay [2] worked out at 50.6 nM; in assay [3], 0.0076 nM; in assay [5], 19.2 nM.

As to `Cc1cc(N(CCCCO)c2nc(C(=O)O)c(CCCOc3ccc(C#CCN(C)C)cc3F)s2)nnc1Nc1nc2ccccc2s1` [Example 134, 2-[[6-(1,3-Benzothiazol-2-ylamino)-5-methyl-pyridazin-3-yl]-(4-hydroxybutyl)amino]-5-[3-[4-[3-(dimethylamino)prop-1-ynyl]-2-fluoro-phenoxy]propyl]thiazole-4-carboxylic acid], the results for the Ki in assay [1] and in assay [4] were below 1 nM and 0.001 nM, respectively. Also, the IC50 in assay [2] came to 1.91 nM; in assay [3] it was 0.0053 nM; in assay [5], 0.783 nM.

Take `CNCC#Cc1ccc(OCCCc2sc(N(CCCC(O)C[N+](C)(C)C)c3cc(C)c(Nc4nc5ccccc5s4)nn3)nc2C(=O)[O-])c(F)c1` (stereo not shown) [Example 144, 2-[[6-(1,3-Benzothiazol-2-ylamino)-5-methyl-pyridazin-3-yl]-[4-hydroxy-5-(trimethylammonio)pentyl]amino]-5-[3-[2-fluoro-4-[3-(methylamino)prop-1-ynyl]phenoxy]propyl]thiazole-4-carboxylate]: the Ki in assay [1] was below 1 nM; in assay [4], 0.0039 nM. Moreover, the IC50 in assay [2] is 14500 nM; in assay [3], 0.014 nM; in assay [5], 430 nM.

Take `CNCC#Cc1ccc(OCCCc2sc(N(CCCC(O)C[N+](C)(C)CCCS(=O)(=O)[O-])c3cc(C)c(Nc4nc5ccccc5s4)nn3)nc2C(=O)O)c(F)c1` (stereo not shown) [Example 146, 3-[[5-[[6-(1,3-Benzothiazol-2-ylamino)-5-methyl-pyridazin-3-yl]-[4-carboxy-5-[3-[2-fluoro-4-[3-(methylamino)prop-1-ynyl]phenoxy]propyl]thiazol-2-yl]amino]-2-hydroxy-pentyl]-dimethyl-ammonio]propane-1-sulfonate]: the Ki in assay [1] is below 1 nM; in assay [4], 0.0012 nM. Besides, the half-inhibitory concentration (IC50) in assay [2] stood at 971 nM; in assay [3], 0.022 nM; in assay [5], 668 nM.

Take `CNCC(O)CCCN(c1cc(C)c(Nc2nc3ccccc3s2)nn1)c1nc(C(=O)O)c(CCCOc2ccc(C#CCN(C)C)cc2F)s1` (stereo not shown) [Example 150, 2-[[6-(1,3-Benzothiazol-2-ylamino)-5-methyl-pyridazin-3-yl]-[4-hydroxy-5-(methylamino)pentyl]amino]-5-[3-[4-[3-(dimethylamino)prop-1-ynyl]-2-fluoro-phenoxy]propyl]thiazole-4-carboxylic acid]: the Ki is below 1 nM in assay [1] and 0.0017 nM in assay [4]. The values for the IC50 in assay [2], in assay [3] and in assay [5] were 16.8 nM, 0.013 nM and 136 nM, respectively.

Turning to `C/C(=C\c1sc(N(C)c2cc(C)c(Nc3nc4ccccc4s3)nn2)nc1C(=O)O)COc1ccc(C#CCN(C)C)cc1F` [Example 163, 2-({6-[(1,3-Benzothiazol-2-yl)amino]-5-methylpyridazin-3-yl}(methyl)amino)-5-[(1E)-3-{4-[3-(dimethylamino)prop-1-yn-1-yl]-2-fluorophenoxy}-2-methylprop-1-en-1-yl]-1,3-thiazole-4-carboxylic acid], the Ki is below 1 nM in assay [1] and 0.02 nM in assay [4]. For the same compound, the IC50 in assay [2] was 1040 nM; in assay [3], 0.18 nM; in assay [5], 96.2 nM.

As to `Cc1cc(N(C)c2nc(C(=O)O)c(CC(O)COc3ccc(C#CCN(C)C)cc3F)s2)nnc1Nc1nc2ccccc2s1` (stereo not shown) [Example 164, 2-({6-[(1,3-benzothiazol-2-yl)amino]-5-methylpyridazin-3-yl}(methyl)amino)-5-(3-{4-[3-(dimethylamino)prop-1-yn-1-yl]-2-fluorophenoxy}-2-hydroxypropyl)-1,3-thiazole-4-carboxylic acid], the Ki is below 1 nM in assay [1] and 0.0019 nM in assay [4]. Besides, the IC50 was 34.6 nM in assay [2], 0.0071 nM in assay [3] and 12.9 nM in assay [5].

As to `Cc1cc(N(CCCCCN(C)C2CCNCC2)c2nc(C(=O)O)c(CCCOc3ccc(C#CCN(C)C)cc3F)s2)nnc1Nc1nc2ccccc2s1` [Example 165, 2-[[6-(1,3-Benzothiazol-2-ylamino)-5-methyl-pyridazin-3-yl]-[5-[methyl(4-piperidyl)amino]pentyl]amino]-5-[3-[4-[3-(dimethylamino)prop-1-ynyl]-2-fluoro-phenoxy]propyl]thiazole-4-carboxylic acid], the Ki is below 1 nM in assay [1] and 0.0059 nM in assay [4]. Besides, the values for the IC50 in assay [2], in assay [3] and in assay [5] were 211 nM, 0.019 nM and 430 nM, respectively.

As for `Cc1cc(N(CCCCCNCCN2CCOCC2)c2nc(C(=O)O)c(CCCOc3ccc(C#CCN(C)C)cc3F)s2)nnc1Nc1nc2ccccc2s1` [Example 166, 2-[[6-(1,3-Benzothiazol-2-ylamino)-5-methyl-pyridazin-3-yl]-[5-(2-morpholinoethylamino)pentyl]amino]-5-[3-[4-[3-(dimethylamino)prop-1-ynyl]-2-fluoro-phenoxy]propyl]thiazole-4-carboxylic acid], the values for the Ki in assay [1] and in assay [4] were below 1 nM and 0.0026 nM, respectively. The IC50 is 142 nM in assay [2], 0.0092 nM in assay [3] and 172 nM in assay [5].

On to `Cc1cc(N(CCCCCNCCN2CCN(C)CC2)c2nc(C(=O)O)c(CCCOc3ccc(C#CCN(C)C)cc3F)s2)nnc1Nc1nc2ccccc2s1` [Example 167, 2-[[6-(1,3-Benzothiazol-2-ylamino)-5-methyl-pyridazin-3-yl]-[5-[2-(4-methylpiperazin-1-yl)ethylamino]pentyl]amino]-5-[3-[4-[3-(dimethylamino)prop-1-ynyl]-2-fluoro-phenoxy]propyl]thiazole-4-carboxylic acid], for which the Ki in assay [1] is below 1 nM; in assay [4], 0.0029 nM. The IC50 was 432 nM in assay [2], 0.013 nM in assay [3] and 400 nM in assay [5].

On to `CNCCN(C)CC(O)CCCN(c1cc(C)c(Nc2nc3ccccc3s2)nn1)c1nc(C(=O)O)c(CCCOc2ccc(C#CCN(C)C)cc2F)s1` (stereo not shown) [Example 169, 2-[[6-(1,3-Benzothiazol-2-ylamino)-5-methyl-pyridazin-3-yl]-[4-hydroxy-5-[methyl-[2-(methylamino)ethyl]amino]pentyl]amino]-5-[3-[4-[3-(dimethylamino)prop-1-ynyl]-2-fluoro-phenoxy]propyl]thiazole-4-carboxylic acid], for which the values for the Ki in assay [1] and in assay [4] were below 1 nM and 0.0044 nM, respectively. The IC50 in assay [2] amounted to 73.1 nM; in assay [3], 0.0099 nM; in assay [5], 106 nM.

Source of the values: patent publication US12649733B2, “3,6-diamino-pyridazin-3-yl derivatives, pharmaceutical compositions containing them and their uses as pro-apoptotic agents” (LES LABORATOIRES SERVIER, priority 2019, dated 2026).
